Results on 23 compounds are retold here after PubChem BioAssay AID248 (DTP/NCI, 2004).

The assay has as its system L1210 leukemia ip in BDF1 mice, survival T/C. Briefly: NCI In Vivo Anticancer Drug Screen. Data for tumor model L1210 Leukemia (intraperitoneal) in B6D2F1 (BDF1) mice. To be noted: endpoint: mean survival time, higher = longer survival. In outline:
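Tumor cells were implanted, animals were treated, and survival was followed. The result divides the treated measurement by the vehicle-control measurement.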

The mark [1] stands for this setting: dose: 100.0 mg/kg/injection, schedule: Q01DX001 (ip), vehicle: saline.
[2] abbreviates: dose: 200.0 mg/kg/injection, schedule: Q01DX001 (ip), vehicle: saline.
The mark [3] stands for this setting: dose: 400.0 mg/kg/injection, schedule: Q01DX001 (ip), vehicle: saline.
Where [4] appears, read: dose: 100.0 mg/kg/injection, schedule: Q04DX003 (ip), vehicle: saline.
The mark [5] stands for this setting: dose: 200.0 mg/kg/injection, schedule: Q04DX003 (ip), vehicle: saline.
Where [6] appears, read: dose: 400.0 mg/kg/injection, schedule: Q04DX003 (ip), vehicle: saline.
Where [7] appears, read: dose: 100.0 mg/kg/injection, schedule: Q01DX009 (ip), vehicle: saline.
The mark [8] stands for this setting: dose: 200.0 mg/kg/injection, schedule: Q01DX009 (ip), vehicle: saline.
The mark [9] stands for this setting: dose: 100.0 mg/kg/injection, schedule: Q04DX002 (ip), vehicle: Klucel (hydroxypropylcellulose) (HPC).
Where [10] appears, read: dose: 200.0 mg/kg/injection, schedule: Q04DX002 (ip), vehicle: Klucel (hydroxypropylcellulose) (HPC).
Where [11] appears, read: dose: 400.0 mg/kg/injection, schedule: Q04DX002 (ip), vehicle: Klucel (hydroxypropylcellulose) (HPC).
The mark [12] stands for this setting: dose: 100.0 mg/kg/injection, schedule: Q01DX009 (ip), vehicle: Klucel (hydroxypropylcellulose) (HPC).
Where [13] appears, read: dose: 200.0 mg/kg/injection, schedule: Q01DX009 (ip), vehicle: Klucel (hydroxypropylcellulose) (HPC).
Setting [14] is: dose: 400.0 mg/kg/injection, schedule: Q01DX009 (ip), vehicle: Klucel (hydroxypropylcellulose) (HPC).
The mark [15] stands for this setting: dose: 100.0 mg/kg/injection, schedule: Q01DX009 (ip), vehicle: saline with Tween-80.
Where [16] appears, read: dose: 200.0 mg/kg/injection, schedule: Q01DX009 (ip), vehicle: saline with Tween-80.
[17] abbreviates: dose: 100.0 mg/kg/injection, schedule: Q04DX002 (ip), vehicle: saline with Tween-80.

Toxic doses and inconclusive results are not listed.

In the case of `Cc1nc(N)[nH]c(=O)c1CCCNCc1ccco1`, the T/C runs as follows: under setting [1], 100 % of control; under setting [2], 103 % of control; under setting [3], 99 % of control.
Turning to `CCCCCCCCCCCCCCCC(S(=O)(=O)CC)S(=O)(=O)CC`, the T/C (dose: 100.0 mg/kg/injection, schedule: Q04DX003 (ip), vehicle: Klucel (hydroxypropylcellulose) (HPC)) was 93 % of control; the T/C (dose: 200.0 mg/kg/injection, schedule: Q04DX003 (ip), vehicle: Klucel (hydroxypropylcellulose) (HPC)) is 97 % of control; the T/C (dose: 400.0 mg/kg/injection, schedule: Q04DX003 (ip), vehicle: Klucel (hydroxypropylcellulose) (HPC)) is 87 % of control.
Take `CCCCCc1ccc(C(C)=O)cc1`: the T/C runs as follows: under setting [4], 100 % of control; under setting [5], 114 % of control; under setting [6], 114 % of control.
In the case of `CC(=O)OCC1OC(N2CCc3ccccc32)C(OC(C)=O)C(OC(C)=O)C1OC(C)=O` (centres undefined), the T/C was 103 % of control under setting [1], 102 % of control under setting [2] and 96 % of control under setting [3].
In the case of `CC(=O)ONc1nc(C)c(CCC2OCCO2)c(SC(=N)N)n1`, the T/C reads like this: under setting [7], 109 % of control; under setting [4], 110 % of control; under setting [8], 113 % of control; under setting [5], 105 % of control; (dose: 400.0 mg/kg/injection, schedule: Q01DX009 (ip), vehicle: saline) 93 % of control; under setting [6], 100 % of control.
Regarding `O=C(Nc1ccc(Br)cc1)C(Br)C(Br)c1ccccc1` (centres undefined), the T/C is 98 % of control under setting [9], 88 % of control under setting [10] and 98 % of control under setting [11].
Consider `CCOc1cc(/C=N/NC(=S)NC23CC4CC(CC(C4)C2)C3)ccc1O`, for which the T/C was 101 % of control (dose: 75.0 mg/kg/injection, schedule: Q01DX001 (ip), vehicle: acetone); 92 % of control (dose: 150.0 mg/kg/injection, schedule: Q01DX001 (ip), vehicle: acetone); 94 % of control (dose: 300.0 mg/kg/injection, schedule: Q01DX001 (ip), vehicle: acetone).
In the case of `C=C(C)C#CC(O)(C(=O)OCC)C1CCCC1` (centres undefined), the T/C runs as follows: (dose: 100.0 mg/kg/injection, schedule: Q01DX001 (ip), vehicle: other) 100 % of control; (dose: 200.0 mg/kg/injection, schedule: Q01DX001 (ip), vehicle: other) 93 % of control; (dose: 400.0 mg/kg/injection, schedule: Q01DX001 (ip), vehicle: other) 93 % of control.
As for `N#CC1C(=O)NC(c2ccccc2)=CC1c1ccccc1` (centres undefined), the T/C by setting is: under setting [1], 100 % of control; under setting [2], 94 % of control; under setting [3], 94 % of control.
For the compound `CCOC(=O)c1ccc(NC(=O)Oc2ccccc2OCC)cc1`, the T/C is 97 % of control under setting [12], 95 % of control under setting [13] and 90 % of control under setting [14].
On to `CNC(=O)Oc1cccc(NC(=O)C=C(C)C)c1`, for which the T/C runs as follows: under setting [15], 91 % of control; under setting [16], 89 % of control.
Turning to `CC(C)(C)NO`, the T/C was 113 % of control (dose: 100.0 mg/kg/injection, schedule: Q01DX001 (ip), vehicle: Klucel (hydroxypropylcellulose) (HPC)); 108 % of control under setting [12]; 101 % of control (dose: 200.0 mg/kg/injection, schedule: Q01DX001 (ip), vehicle: Klucel (hydroxypropylcellulose) (HPC)); 103 % of control under setting [13]; 98 % of control (dose: 400.0 mg/kg/injection, schedule: Q01DX001 (ip), vehicle: Klucel (hydroxypropylcellulose) (HPC)); 101 % of control under setting [14].
On to `CCOC(=O)C(C)[P+](c1ccccc1)(c1ccccc1)c1ccccc1` (centres undefined), for which the T/C is 108 % of control (dose: 1.5 mg/kg/injection, schedule: Q01DX009 (ip), vehicle: saline); 98 % of control (dose: 1.5 mg/kg/injection, schedule: Q04DX003 (ip), vehicle: saline); 106 % of control (dose: 3.0 mg/kg/injection, schedule: Q01DX009 (ip), vehicle: saline); 108 % of control (dose: 3.0 mg/kg/injection, schedule: Q04DX003 (ip), vehicle: saline); 123 % of control (dose: 6.0 mg/kg/injection, schedule: Q04DX003 (ip), vehicle: saline).
For `Clc1ccc2nncn2n1`, the T/C reads like this: (dose: 50.0 mg/kg/injection, schedule: Q04DX003 (ip), vehicle: saline with Tween-80) 97 % of control; (dose: 100.0 mg/kg/injection, schedule: Q04DX003 (ip), vehicle: saline with Tween-80) 100 % of control; (dose: 200.0 mg/kg/injection, schedule: Q04DX003 (ip), vehicle: saline with Tween-80) 100 % of control.
With `O=NN(CCCl)C(=O)NC1CCC(Br)CC1` (centres undefined), the T/C (dose: 10.0 mg/kg/injection, schedule: Q01DX001 (ip), vehicle: saline with Tween-80) was 122 % of control; the T/C (dose: 22.0 mg/kg/injection, schedule: Q01DX001 (ip), vehicle: saline with Tween-80) was 150 % of control; the T/C (dose: 33.5 mg/kg/injection, schedule: Q01DX001 (ip), vehicle: saline with Tween-80) was 197 % of control; the T/C (dose: 50.0 mg/kg/injection, schedule: Q01DX001 (ip), vehicle: saline with Tween-80) is 455 % of control; the T/C (dose: 75.0 mg/kg/injection, schedule: Q01DX001 (ip), vehicle: saline with Tween-80) was 455 % of control; the T/C (dose: 112.0 mg/kg/injection, schedule: Q01DX001 (ip), vehicle: saline with Tween-80) was 420 % of control. For the setting “dose: 252.0 mg/kg/injection, schedule: Q01DX001 (ip), vehicle: saline with Tween-80”, the T/C is 208 % of control.
Turning to `Cc1ccc(SC(=O)CC(=O)Sc2ccc(C)cc2)cc1`, the T/C is, setting by setting: (dose: 50.0 mg/kg/injection, schedule: Q01DX009 (ip), vehicle: saline with Tween-80) 91 % of control; under setting [15], 94 % of control; under setting [16], 97 % of control.
For the compound `CC(=O)Oc1ccc(N2C(=O)C=CC2=O)cc1`, the T/C (dose: 3.12 mg/kg/injection, schedule: Q01DX009 (ip), vehicle: Klucel (hydroxypropylcellulose) (HPC)) is 97 % of control; the T/C (dose: 6.25 mg/kg/injection, schedule: Q01DX009 (ip), vehicle: Klucel (hydroxypropylcellulose) (HPC)) was 96 % of control; the T/C (dose: 12.5 mg/kg/injection, schedule: Q01DX009 (ip), vehicle: Klucel (hydroxypropylcellulose) (HPC)) was 100 % of control; the T/C (dose: 25.0 mg/kg/injection, schedule: Q04DX003 (ip), vehicle: Klucel (hydroxypropylcellulose) (HPC)) was 118 % of control.
As to `Cc1cccc(NC(=O)COc2ccc(C)cc2C)c1`, the T/C runs as follows: under setting [9], 103 % of control; under setting [10], 92 % of control; under setting [11], 95 % of control.
Consider `O=C1NC(=O)C(O)(O)C(=O)N1`, for which the T/C is 104 % of control under setting [7] and 93 % of control under setting [8].
Take `CCCCCc1cnc(NCCCC(N)C(=O)O)nc1` (centres undefined): the T/C is, setting by setting: (dose: 25.0 mg/kg/injection, schedule: Q04DX002 (ip), vehicle: saline with Tween-80) 95 % of control; (dose: 50.0 mg/kg/injection, schedule: Q04DX002 (ip), vehicle: saline with Tween-80) 95 % of control; under setting [17], 95 % of control.
Take `COc1ccc(NC(=O)Nc2ccccc2Cl)c(Cl)c1`: the T/C under setting [17] was 90 % of control; the T/C (dose: 200.0 mg/kg/injection, schedule: Q04DX002 (ip), vehicle: saline with Tween-80) was 87 % of control; the T/C (dose: 400.0 mg/kg/injection, schedule: Q04DX002 (ip), vehicle: saline with Tween-80) was 87 % of control.
As for `CC1(c2ccc(O)cc2)CCC(C(C)(C)c2ccc(O)cc2)CC1` (centres undefined), the T/C is 107 % of control under setting [15] and 107 % of control under setting [16].
With `O=c1cc(Nc2cccc(Cl)c2)[nH]c(=O)[nH]1`, the T/C reads like this: (dose: 35.0 mg/kg/injection, schedule: Q01DX001 (ip), vehicle: Klucel (hydroxypropylcellulose) (HPC)) 92 % of control; (dose: 70.0 mg/kg/injection, schedule: Q01DX001 (ip), vehicle: Klucel (hydroxypropylcellulose) (HPC)) 92 % of control; (dose: 140.0 mg/kg/injection, schedule: Q01DX001 (ip), vehicle: Klucel (hydroxypropylcellulose) (HPC)) 98 % of control.
